# Measurements taken from ChEMBL document CHEMBL1152667, “Synthesis and radiopharmacological investigation of 3-[4'-[(18)F]fluorobenzylidene]indolin-2-one as possible tyrosine kinase inhibitor” (Bioorg Med Chem, 2009).
# Tests used:
# [1] = test system: Testes; assay: Biodistribution in Wistar rat testes at 1.7 MBq, iv administered as single dose measured after 60 mins post-injection by gamma counting; type: ADME, organism-based, Testis; details: in vivo, 1 h
# [2] = test system: Blood; assay: Biodistribution in Wistar rat blood assessed as standard uptake value at 1.7 MBq, iv administered as single dose measured after 60 mins post-injection by gamma counting; type: ADME, organism-based; details: in vivo, 1 h
# [3] = test system: Heart; assay: Biodistribution in Wistar rat heart assessed as standard uptake value at 1.7 MBq, iv administered as single dose measured after 5 mins post-injection by gamma counting; type: ADME, organism-based; details: in vivo
# [4] = Ratio of drug level in liver to blood in Wistar rat at 1.7 MBq, iv administered as single dose measured after 5 mins post-injection; type: ADME, organism-based
# [5] = Biodistribution in Wistar rat hair/skin assessed as standard uptake value at 1.7 MBq, iv administered as single dose measured after 60 mins post-injection by gamma counting; type: ADME, organism-based; details: in vivo, 1 h
# [6] = test system: Lung; assay: Biodistribution in Wistar rat lung at 1.7 MBq, iv administered as single dose measured after 1 min post-injection by gamma counting; type: ADME, organism-based; details: in vivo
# [7] = test system: Blood; assay: Biodistribution in Wistar rat blood assessed as standard uptake value at 1.7 MBq, iv administered as single dose measured after 30 mins post-injection by gamma counting; type: ADME, organism-based; details: in vivo, 0.5 h
# [8] = Ratio of drug level in brown adipose tissue to blood in Wistar rat at 1.7 MBq, iv administered as single dose measured after 60 mins post-injection; type: ADME, organism-based
# [9] = test system: Adrenal gland; assay: Biodistribution in Wistar rat adrenal gland at 1.7 MBq, iv administered as single dose measured after 30 mins post-injection by gamma counting; type: ADME, organism-based; details: in vivo, 0.5 h
# [10] = test system: Liver; assay: Biodistribution in Wistar rat liver at 1.7 MBq, iv administered as single dose measured after 60 mins post-injection by gamma counting; type: ADME, organism-based; details: in vivo, 1 h
# [11] = Ratio of drug level in kidney to blood in Wistar rat at 1.7 MBq, iv administered as single dose measured after 5 mins post-injection; type: ADME, organism-based
# [12] = test system: Kidney; assay: Biodistribution in Wistar rat kidney assessed as standard uptake value at 1.7 MBq, iv administered as single dose measured after 10 mins post-injection by gamma counting; type: ADME, organism-based; details: in vivo
# [13] = test system: Brain; assay: Biodistribution in Wistar rat brain assessed as standard uptake value at 1.7 MBq, iv administered as single dose measured after 1 min post-injection by gamma counting; type: ADME, organism-based; details: in vivo
# [14] = test system: Brain; assay: Biodistribution in Wistar rat brain at 1.7 MBq, iv administered as single dose measured after 5 mins post-injection by gamma counting; type: ADME, organism-based; details: in vivo
# [15] = test system: Lung; assay: Biodistribution in Wistar rat lung at 1.7 MBq, iv administered as single dose measured after 10 mins post-injection by gamma counting; type: ADME, organism-based; details: in vivo
# [16] = test system: Brain; assay: Biodistribution in Wistar rat brain at 1.7 MBq, iv administered as single dose measured after 1 min post-injection by gamma counting; type: ADME, organism-based; details: in vivo
# [17] = test system: Lung; assay: Biodistribution in Wistar rat lung assessed as standard uptake value at 1.7 MBq, iv administered as single dose measured after 30 mins post-injection by gamma counting; type: ADME, organism-based; details: in vivo, 0.5 h
# [18] = Biodistribution in Wistar rat brown adipose tissue assessed as standard uptake value at 1.7 MBq, iv administered as single dose measured after 60 mins post-injection by gamma counting; type: ADME, organism-based; details: in vivo, 1 h
# [19] = test system: Testes; assay: Biodistribution in Wistar rat testes assessed as standard uptake value at 1.7 MBq, iv administered as single dose measured after 60 mins post-injection by gamma counting; type: ADME, organism-based, Testis; details: in vivo, 1 h
# [20] = Biodistribution in Wistar rat adipose tissue assessed as standard uptake value at 1.7 MBq, iv administered as single dose measured after 30 mins post-injection by gamma counting; type: ADME, organism-based; details: in vivo, 0.5 h
# [21] = test system: Lung; assay: Biodistribution in Wistar rat lung assessed as standard uptake value at 1.7 MBq, iv administered as single dose measured after 5 mins post-injection by gamma counting; type: ADME, organism-based; details: in vivo
# [22] = test system: Heart; assay: Biodistribution in Wistar rat heart assessed as standard uptake value at 1.7 MBq, iv administered as single dose measured after 60 mins post-injection by gamma counting; type: ADME, organism-based; details: in vivo, 1 h
# [23] = Biodistribution in Wistar rat thyroid gland at 1.7 MBq, iv administered as single dose measured after 10 mins post-injection by gamma counting; type: ADME, organism-based; details: in vivo
# [24] = test system: Thymus; assay: Biodistribution in Wistar rat thymus at 1.7 MBq, iv administered as single dose measured after 30 mins post-injection by gamma counting; type: ADME, organism-based; details: in vivo, 0.5 h
# [25] = Biodistribution in Wistar rat urine at 1.7 MBq, iv administered as single dose measured after 60 mins post-injection by gamma counting; type: ADME, organism-based; details: in vivo, 1 h
# [26] = test system: Femur; assay: Biodistribution in Wistar rat femur at 1.7 MBq, iv administered as single dose measured after 1 min post-injection by gamma counting; type: ADME, organism-based; details: in vivo
# [27] = Biodistribution in Wistar rat adipose tissue assessed as standard uptake value at 1.7 MBq, iv administered as single dose measured after 1 min post-injection by gamma counting; type: ADME, organism-based; details: in vivo
# [28] = test system: Muscle tissue; assay: Biodistribution in Wistar rat muscle assessed as standard uptake value at 1.7 MBq, iv administered as single dose measured after 1 min post-injection by gamma counting; type: ADME, organism-based; details: in vivo
# [29] = test system: Testes; assay: Biodistribution in Wistar rat testes at 1.7 MBq, iv administered as single dose measured after 5 mins post-injection by gamma counting; type: ADME, organism-based, Testis; details: in vivo
# [30] = Metabolic stability in Wistar rat plasma assessed as compound remaining at 0.5 MBq after 60 mins by radio-HPLC analysis; type: ADME, cell-free; details: read-out: Stability
# [31] = test system: Blood; assay: Metabolic stability in Wistar rat blood at 30 MBq, iv after 60 mins by radio-HPLC analysis; type: ADME, organism-based; details: in vivo, 1 h
# [32] = Metabolic stability in Wistar rat blood assessed as compound remaining at 30 MBq, iv after 10 mins by radio-HPLC analysis; type: ADME, organism-based; details: read-out: Stability
# [33] = Biodistribution in Wistar rat thyroid gland at 1.7 MBq, iv administered as single dose measured after 30 mins post-injection by gamma counting; type: ADME, organism-based; details: in vivo, 0.5 h
# [34] = test system: Harderian gland; assay: Biodistribution in Wistar rat harderian gland assessed as standard uptake value at 1.7 MBq, iv administered as single dose measured after 10 mins post-injection by gamma counting; type: ADME, organism-based; details: in vivo
# [35] = test system: Thymus; assay: Biodistribution in Wistar rat thymus at 1.7 MBq, iv administered as single dose measured after 10 mins post-injection by gamma counting; type: ADME, organism-based; details: in vivo
# [36] = Biodistribution in Wistar rat urine at 1.7 MBq, iv administered as single dose measured after 10 mins post-injection by gamma counting; type: ADME, organism-based; details: in vivo
# [37] = test system: Spleen; assay: Biodistribution in Wistar rat spleen at 1.7 MBq, iv administered as single dose measured after 30 mins post-injection by gamma counting; type: ADME, organism-based; details: in vivo, 0.5 h
# [38] = test system: Adrenal gland; assay: Biodistribution in Wistar rat adrenal gland at 1.7 MBq, iv administered as single dose measured after 5 mins post-injection by gamma counting; type: ADME, organism-based; details: in vivo
# [39] = test system: Harderian gland; assay: Biodistribution in Wistar rat harderian gland at 1.7 MBq, iv administered as single dose measured after 10 mins post-injection by gamma counting; type: ADME, organism-based; details: in vivo
# [40] = Metabolic stability in Wistar rat blood assessed as compound remaining at 30 MBq, iv after 1 min by radio-HPLC analysis; type: ADME, organism-based; details: read-out: Stability
# [41] = Ratio of drug level in heart to blood in Wistar rat at 1.7 MBq, iv administered as single dose measured after 60 mins post-injection; type: ADME, organism-based
# [42] = Biodistribution in Wistar rat brown adipose tissue assessed as standard uptake value at 1.7 MBq, iv administered as single dose measured after 10 mins post-injection by gamma counting; type: ADME, organism-based; details: in vivo
# [43] = test system: Muscle tissue; assay: Biodistribution in Wistar rat muscle assessed as standard uptake value at 1.7 MBq, iv administered as single dose measured after 60 mins post-injection by gamma counting; type: ADME, organism-based; details: in vivo, 1 h
structure (smiles),measurement,setting,value
O=C1Nc2ccccc2/C1=C/c1ccc([18F])cc1,Drug uptake,[1],0.24 %ID
same,SUV,[2],0.15%
same,SUV,[3],1.33%
same,Kp at 5 min,[4],6.7
same,SUV,[5],0.19%
same,Drug uptake,[6],2.68 %ID
same,SUV,[7],0.27%
same,Kp at 1 h,[8],4.3
same,Drug uptake,[9],0.04 %ID
same,Drug uptake,[10],5.98 %ID
same,Kp at 5 min,[11],4.7
same,SUV,[12],2.27%
same,SUV,[13],2.84%
same,Drug uptake,[14],1.87 %ID
same,Drug uptake,[15],0.66 %ID
same,Drug uptake,[16],3.09 %ID
same,SUV,[17],0.47%
same,SUV,[18],0.63%
same,SUV,[19],0.19%
same,SUV,[20],1.17%
same,SUV,[21],1.3%
same,SUV,[22],0.2%
same,Drug uptake,[23],0.05 %ID
same,Drug uptake,[24],0.08 %ID
same,Drug uptake,[25],43.53 %ID
same,Drug uptake,[26],0.44 %ID
same,SUV,[27],0.7%
same,SUV,[28],0.82%
same,Drug uptake,[29],0.38 %ID
same,"remaining at 1 h, 0.5 MBq",[30],96%
same,Stability,[31],Unstable
same,remaining at 10 min,[32],18%
same,Drug uptake,[33],0.03 %ID
same,SUV,[34],1.91%
same,Drug uptake,[35],0.23 %ID
same,Drug uptake,[36],6.98 %ID
same,Drug uptake,[37],0.08 %ID
same,Drug uptake,[38],0.17 %ID
same,Drug uptake,[39],0.25 %ID
same,remaining at 1 min,[40],70%
same,Kp at 1 h,[41],1.8
same,SUV,[42],1.83%
same,SUV,[43],0.19%
